From US9051467B2, “Method of analysing a cell or other biological material containing a nucleic acid” (BIOSTATUS LIMITED, priority 2010, dated 2015)

Experiments:
[1] = test system: live cells and dead cells; assay: Cell permeant/cell impermeant dye combination staining of live and dead cells; format: cell-based; design: key to Live cell stain / Dead cell stain: +: positive; −: negative; conditions: for Dead cell stain / Live cell stain: combination staining pattern, predicted
Text: It will be appreciated that this provides the opportunity to perform numerous advantageous two-colour, two-fluorochrome experiments. Moreover, the present inventors have realised that dye combinations of this type also provide a platform for performing a range of advantageous experiments using one or more further fluorochromes.
(§1) These possible detection systems and others will now be described in more detail with reference to FIGS. 1 to 9. […] Therefore, the Compound of Formula (IIA) fluorescence is generally in the orange portion of the visible spectrum, whereas compound (IA) fluorescence is generally in the far red portion of the visible spectrum. […] The compound of Formula (IIA) is a cell permeant dye, and therefore it would be expected that the fluorescence signature B would be in connection with live or dead cells. […] As might perhaps be expected, it is only the fluorescence signature B associated with the cell permeant dye which is observed. […] It might be expected that a significant contribution of the observed fluorescence would emanate from the compound of Formula (IIA) dye. […] Therefore, the compound (IA) dye appears to quench the compound of Formula (IIA) signal. […] However, other mechanisms may play a role. The upshot is that it is possible to provide a “traffic light” system to indicate the state of a cell, wherein fluorescence in one spectral region A is associated with dead cells, and fluorescence in another spectral region B is associated with live cells.

[2] = test system: DoHH2 cultures treated with VP-16; assay: Combination tracking of cell status with compound (IA) plus compound (IIA), flow cytometry; format: cell-based, human; conditions: 20 μM compound (IIA) and 4 μM compound (IA), 10 minutes, VP-16 0.25 μM
Experimental: Cell culture and drug treatment: A human follicular B-lymphoma cell line was used in this study. DoHH2 was routinely maintained in RPMI 1640 supplemented with 5% FCS and 100 U ml-1 penicillin, 100 μgml^−1 streptomycin, and 2 mM glutamine. The cells were passaged twice weekly at an initiating density of 5×10^4 cells ml^−1 cultured at 37° C. in a humidified atmosphere of 5% CO2/95% air. Cells were set at 5×10^5 cells/per ml and exposed to VP-16 doses (0.25 μM) to induce apoptosis. 20 μM Compound (IIA) and 4 μM compound (IA) were added to 1 ml of cells and incubated under standard culture conditions for 10 minutes. The samples were analysed by flow cytometry.
A FACS Vantage flow cytometer (as for example above) was used. Compound (IIA) and compound (IA) fluorescent signals derived from 488 nm excitation were detected in linear mode at FL2 for Compound (IIA) (585/42 nm filters); compound (IA) signal derived from 488 nm were detected in linear mode at FL3 with a 695LP filter and a FL1/2 560 nm SP dichroic SP to determine scatter properties. Signals for forward and side scatter and fluorescence were collected for 10,000 cells using the forward light scatter parameter as the master signal. Contour plots of side versus forward scatter depict two populations of cells. The addition of Compound (IIA) and compound (IA) provide functional status of these cultures. […]

[3] = test system: fixed U-2 OS human osteosarcoma cells; assay: Nuclear staining of fixed cells by fluorescence microscopy; format: cell-based; conditions: 20 μM, cells fixed with 4% paraformaldehyde
Experimental: Cell culture: Human osteosarcoma cells U-20S (ATCC HTB-96) cells (adherent) were cultured in McCoy's 5a medium supplemented with 10% foetal calf serum (FCS), 1 mM glutamine, and antibiotics and incubated at 37° C. in an atmosphere of 5% CO2 in air. For fluorescence imaging experiments, cells were grown at a density of 1×10^5 cells ml^−1 as a monolayer in coverglass bottomed chambers (Nunc, 2 Well Lab-Tek II, Fisher Scientific). Imaging: Following a 24 hour period cells were then fixed with 4% paraformaldehyde in PBS for 15-30 min at room temperature. No washing step is required. Compound (IA) was used in a manner appropriate to being the final staining procedure, after any treatment. Compound (IA) was added directly at 20 μM in to a 0.5 ml PBS overlay of the adherent cells. Cells were directly viewed using wide-field fluorescence microscopy. Chambers were placed onto an Axiovert 100 microscope (Carl Zeiss, Welwyn Garden City, UK and using a 40×, 1.3 NA oil immersion plan apochromat lens).fluorescence images (Ex: 620/60 nm; Em 700/75 nm) nm captured using an ORCA-ER CCD camera (Hamamatsu, Reading, UK) and MetaMorph (MDS, USA) acquisition software. […] The compound (IA) staining of nuclei were segmented using a simple threshold algorithm which depict the nuclei, and provide binary or mask information of each nucleus (object) localization. […]

[4] = test system: human Jurkat cells; assay: Multi-parameter JC-1 / compound (IA) analysis of staurosporine treated cells; format: cell-based; conditions: 3 μM with JC-1, Jurkat cells, 1 μM staurosporine for 4 hours
Text: In this example, the dye JC-1 (5,5′,6,6′-tetrachloro-1,1′,3,3′-tetraethylbenzimidazol-carbocyanine iodide) is a lipophilic fluorescent cation that incorporates into the mitochondrial membrane, where it can form aggregates due to the physiological maintenance membrane potential of mitochondria. Aggregation modifies the fluorescence properties of JC-1 leading to a shift from green to orange fluorescence. Flow cytometry or imaging was used to monitor the decrease of the orange fluorescence and an increase of the green fluorescence allowing apoptotic cells to be distinguished from non-apoptotic cells.
Cell culture and drug treatment: A Jurkat cell line was used in this study Jurkat cultures was routinely maintained in RPMI 1640 supplemented with 10% FCS and 100 U ml-1 penicillin, 100 μg ml-1 streptomycin, and 2 mM glutamine. […] These were then analysed by flow cytometry or placed into a Nunc, 2 Well Lab-Tek II, (Fisher Scientific) and analysed by three channel confocal microscopy.
Multi-parameter flow cytometry of staurosporine treated cells A FACS Vantage flow cytometer (as for example above). […] JC-1 two parameter fluorescent signal were derived from 488 nm excitation were detected in logarithmic mode Green J-monomer was detected using FL1 (530/30 nm emission); Orange J-aggregate was detected using FL2 (585/42 nm emission). […]

[5] = Spectral properties (absorbance and fluorescence spectra); format: physicochemical; conditions: for Em peak / Ex peak: FIG. 1, in general terms (diagrammatically)
Text: as §1
Compound (IA) was synthesized using the principles described in Example 2 and stored at +4° C. as a stock solution of 5 mM compound (IA) dilution in buffer. Absorbance spectra were obtained using a spectrometer and a 20 μM solution of agent dissolved in PBS and measured in a 1 cm path quartz silica cuvette. Fluorescence spectra for a solution of 20 μM compound (IA) in a 1 cm path length semi-micro quartz cuvette were determined by excitation at 633, 589, 534, 488 nm. Fluorescence measurements were made on a Perkin Elmer LS50 spectrofluorometer with slit widths set at 10 nm. The spectrofluoremeter was equipped with a red-sensitive photomultiplier tube (Type R928; Hamamatsu Photonics KK, Japan. Data were accumulated and exported into a spread sheet to correct for the buffer control and to determine emission maxima. The results are shown in FIG. 8. Compound (IA) may be sub-optimally excited by wavelengths from 488 nm (in flow cytometry) and up to 647 nm (Exλmax 646 nm). Typically, for cell imaging, excitation is performed with either 633 nm or 647 nm wavelengths. Emission spectra are independent of excitation wavelength, ie, all the emission spectra are identical irrespective of excitation wavelength.

| Molecule | Cell permeation property [1] | Dead cell stain [1] | Live cell stain [1] | Cell fraction identified [2] | Nuclear localisation of dye [3] | Discrimination of early and late apoptosis sub-fractions [4] | Exλmax ([5]; 20 μM solution in PBS) | Em peak [5] | Ex peak [5] | Fluorescence observed in dead cells ([1]; in combination with compound (IA)) |
| --- | --- | --- | --- | --- | --- | --- | --- | --- | --- | --- |
| 1,5-Bis{[2-(trimethylamino)ethyl]amino}-5,8-dihydroxyanthracene-9,10-dione iodide [Compound (IA)] | cell impermeant | + | − | identifies the non-intact cell fraction | localization of high levels of compound (IA) in the nucleus | can depict these sub-fractions | 646 nm | 660 nm | 620 nm |  |
| CN(C)CCNc1cccc2c1C(=O)c1cccc(NCCN(C)C)c1C2=O [Compound (IIA), 1,5-Bis{[2-(dimethylamino)ethyl]amino}anthracene-9,10-dione] | cell permeant | − | + | positive cells represent the live cell (viable) fraction |  |  |  | 615 nm | 518 nm | little or no fluorescence |
